The values below come from patent US10669258B2, “3-sulfonyl-5-aminopyridine-2,4-diol APJ agonists” (BRISTOL-MYERS SQUIBB COMPANY, priority 2016, dated 2020).

Where two headings read alike, the source gives them in different places.

In the experiment the target is T1, human APJ receptor (Homo sapiens, UniProt P35414).
T1 construct: expressed in transfected cells; host or cells: HEK293
T1 sequence (P35414 1-380): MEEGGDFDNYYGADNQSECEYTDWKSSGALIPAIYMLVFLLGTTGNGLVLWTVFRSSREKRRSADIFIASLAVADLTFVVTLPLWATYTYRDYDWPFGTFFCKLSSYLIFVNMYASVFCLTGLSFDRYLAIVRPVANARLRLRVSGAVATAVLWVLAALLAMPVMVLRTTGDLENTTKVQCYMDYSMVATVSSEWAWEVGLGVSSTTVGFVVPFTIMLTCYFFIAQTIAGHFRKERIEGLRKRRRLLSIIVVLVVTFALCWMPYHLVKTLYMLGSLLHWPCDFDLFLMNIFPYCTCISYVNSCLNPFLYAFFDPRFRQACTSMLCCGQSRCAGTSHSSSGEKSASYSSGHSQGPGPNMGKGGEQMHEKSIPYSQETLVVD
In words: Intracellular cAMP accumulation assay (APJ hcAMP, HTRF). The class given is cell-based. The following applies: HEK293 cells stably expressing human APJ receptor, inhibition of forskolin-mediated cAMP production. As to the method: Intracellular cAMP Accumulation Assay
HEK293 cells stably expressing human APJ receptor were used to assess the activity of compounds. Cultured cells were detached and resuspended in the cAMP Homogeneous Time-Resolved Fluorescence (HTRF) assay buffer (Cisbio cat; #62AM4PEJ). The assay was performed in 384-well assay plates (Perkin-Elmer; cat #6008289) according to assay protocol provided by the manufacturer. Serial dilutions of a compound together with assay buffer containing […] IBMX and 2 μM forskolin were added to each well containing 5,000 cells and incubated for 30 minutes at room temperature. Subsequently, cAMP D2 reagent was added in the lysis buffer followed by the EuK antibody (Cisbio; cat #62AM4PEJ) and incubated for 60 min. The fluorescence emission ratio was measured using fluorometer. The intracellular cAMP concentrations (compound-stimulated inhibition of forskolin-mediated cAMP production) were calculated by extrapolation from a standard curve using known cAMP concentrations. The EC50 values were obtained by fitting the data to a sigmoidal concentration-response curve with variable slope. The maximal achievable inhibition of forskolin-induced cAMP levels (Ymax) for each compound was expressed as relative percentage of inhibition attained using pyroglutamated apelin-13 ((Pyr1)apelin-13) peptide, which was set to 100%.
The examples disclosed below were tested in the APJ in vitro assays described above and were found having human APJ cyclic AMP (hcAMP) activity. The EC50 value of each compound is presented at the end of the example description.
The biological activity of the exemplified compounds of this invention determined by the assay described above is shown at the end of each example.
For orientation: Changes in cAMP serve as a functional read-out for many G protein-coupled receptors.

Setting [1] is: read-out: Human APJ cAMP Potency range.
The mark [2] stands for this setting: Table 1, read-out: hAPJ cAMP EC50 Potency range.
[3] abbreviates: hAPJ cAMP EC50 Potency range, Table 1.

`CCN(c1ccccc1)c1c(-c2ccn(C)n2)nc(O)c(C(=O)N2CCC(c3ccc(Cl)cn3)C2)c1O` (single isomer, unassigned) [Example 199, (3-(5-chloropyridin-2-yl)pyrrolidin-1-yl)(5-(ethyl(phenyl)amino)-2,4-dihydroxy-6-(1-methyl-1H-pyrazol-3-yl)pyridin-3-yl)methanone]: the EC50 under setting [1] was 0.01 to 10 nM.
With `CCCCc1nc(O)c(S(=O)(=O)c2ccc(-c3ccnc(F)c3C)cc2)c(O)c1N1c2ccccc2CCC1C` (stereo not drawn) [167-I, 6-butyl-3-((4-(2-fluoro-3-methylpyridin-4-yl)phenyl)sulfonyl)-5-(2-methyl-3,4-dihydroquinolin-1(2H)-yl)pyridine-2,4-diol], the EC50 under setting [2] was in the range of 0.01 to 10 nM.
For the compound `CCCCc1nc(O)c(S(=O)(=O)c2ccc(-c3ccnc(F)c3C)cc2)c(O)c1N(C)c1cccc(C#N)c1` [AB-005, 3-((2-butyl-5-((4-(2-fluoro-3-methylpyridin-4-yl)phenyl)sulfonyl)-4,6-dihydroxypyridin-3-yl)(methyl)amino)benzonitrile], under setting [1], the EC50 was 0.01 to 10 nM.
Compound `CCCCc1nc(O)c(C(=O)N2CC[C@@H](c3ccccc3)C2)c(O)c1N(CC)c1ccccc1` [Example 001, (S)-(6-butyl-5-(ethyl(phenyl)amino)-2,4-dihydroxypyridin-3-yl)(3-phenylpyrrolidin-1-yl)methanone] had an EC50 (Human APJ cAMP Potency range) of 10 to 100 nM.
`CCCCc1nc(O)c(S(=O)(=O)c2ccc(-c3ccc(F)nc3)cc2)c(O)c1N(CC)c1ccccc1` [Example 002, 6-butyl-5-(ethyl(phenyl)amino)-3-((4-(6-fluoropyridin-3-yl)phenyl)sulfonyl)pyridine-2,4-diol]: the EC50 under setting [1] lay within 0.01 to 10 nM.
The same measure, in the same setting: under `CCCCc1nc(O)c(S(=O)(=O)c2ccc(-n3cc(C)ccc3=O)cc2)c(O)c1N(CC)c1ccccc1` [Example 003, 1-(4-((6-butyl-5-(ethyl(phenyl)amino)-2,4-dihydroxypyridin-3-yl)sulfonyl)phenyl)-5-methylpyridin-2(1H)-one] stands 0.01 to 10 nM; under `CCCCc1nc(O)c(S(=O)(=O)c2ccc(C3CC3)cc2)c(O)c1N(CC)c1ccccc1` [Example 004, 6-butyl-3-((4-cyclopropylphenyl)sulfonyl)-5-(ethyl(phenyl)amino)pyridine-2,4-diol], 0.01 to 10 nM; under `CCCCc1nc(O)c(C(=O)N2CCC(c3ncc(F)cc3F)C2)c(O)c1N(C)c1ccccc1F` (stereo not drawn) [Example 006, (6-butyl-5-((2-fluorophenyl)(methyl)amino)-2,4-dihydroxypyridin-3-yl)(3-(3,5-difluoropyridin-2-yl)pyrrolidin-1-yl)methanone], 0.01 to 10 nM.
Regarding `CCCCc1nc(O)c(C(=O)N2CC[C@@H](c3ccccc3)C2)c(O)c1N(C)c1ccccc1` [Example 007, (S)-(6-butyl-2,4-dihydroxy-5-(methyl(phenyl)amino)pyridin-3-yl)(3-phenylpyrrolidin-1-yl)methanone], the EC50 under setting [3] was 10 to 100 nM.
Same read-out and setting: for `CCCCc1nc(O)c(C(=O)N2CC[C@H](c3ccccc3)C2)c(O)c1N(C)c1ccccc1` [Example 008, (R)-(6-butyl-2,4-dihydroxy-5-(methyl(phenyl)amino)pyridin-3-yl)(3-phenylpyrrolidin-1-yl)methanone] the value was 10 to 100 nM; for `CCCCc1nc(O)c(C(=O)N2CC[C@H](c3ccccc3)C2)c(O)c1N1CCc2ccccc21` [Example 009, (R)-(6-butyl-2,4-dihydroxy-5-(indolin-1-yl)pyridin-3-yl)(3-phenylpyrrolidin-1-yl)methanone], 10 to 100 nM.
In the case of `CCCCc1nc(O)c(S(=O)(=O)c2ccc(Br)cc2)c(O)c1N(C)c1ccccc1` [Example 010, 3-((4-bromophenyl)sulfonyl)-6-butyl-5-(methyl(phenyl)amino)pyridine-2,4-diol], the EC50 under setting [2] was 10 to 100 nM.
On the same count and under the same terms, under `CCCCc1nc(O)c(S(=O)(=O)c2ccc(-c3ccnc(F)c3C)cc2)c(O)c1N(C)c1ccccc1` [Example 011, 6-butyl-3-((4-(2-fluoro-3-methylpyridin-4-yl)phenyl)sulfonyl)-5-(methyl(phenyl)amino)pyridine-2,4-diol] stands 0.01 to 10 nM; under `CCCCc1nc(O)c(S(=O)(=O)c2ccc(-c3ccc(F)nc3)cc2)c(O)c1N(C)c1ccccc1` [Example 012, 6-butyl-3-((4-(6-fluoropyridin-3-yl)phenyl)sulfonyl)-5-(methyl(phenyl)amino)pyridine-2,4-diol], 0.01 to 10 nM.
The same measure, in the same setting: for `CCCCc1nc(O)c(S(=O)(=O)c2ccc(-c3ccncc3C)cc2)c(O)c1N1CCc2ccccc21` [Example 013, 6-butyl-5-(indolin-1-yl)-3-((4-(3-methylpyridin-4-yl)phenyl)sulfonyl)pyridine-2,4-diol] the value was 0.01 to 10 nM; for `CCCCc1nc(O)c(S(=O)(=O)c2ccc(-c3ccncc3C)cc2)c(O)c1N(C)c1ccccc1` [Example 014, 6-butyl-5-(methyl(phenyl)amino)-3-((4-(3-methylpyridin-4-yl)phenyl)sulfonyl)pyridine-2,4-diol], 0.01 to 10 nM; for `CCCCc1nc(O)c(S(=O)(=O)c2ccc(-c3ccc(F)nc3C)cc2)c(O)c1N(C)c1ccccc1` [Example 015, 6-butyl-3-((4-(6-fluoro-2-methylpyridin-3-yl)phenyl)sulfonyl)-5-(methyl(phenyl)amino)pyridine-2,4-diol], 0.01 to 10 nM.
`CCCCc1nc(O)c(S(=O)(=O)c2ccc(C3CC3)cc2)c(O)c1N(C)c1ccccc1` [Example 016, 6-butyl-3-((4-cyclopropylphenyl)sulfonyl)-5-(methyl(phenyl)amino)pyridine-2,4-diol]: the EC50 under setting [2] lay in the range of 0.01 to 10 nM.
With `CCCCc1nc(O)c(S(=O)(=O)c2ccc(-c3cccnc3C)cc2)c(O)c1N(C)c1ccccc1` [Example 017, 6-butyl-5-(methyl(phenyl)amino)-3-((4-(2-methylpyridin-3-yl)phenyl)sulfonyl)pyridine-2,4-diol], the EC50 under setting [2] lay in the range of 0.01 to 10 nM.
On to `CCCCc1nc(O)c(S(=O)(=O)c2ccc(-n3cc(Cl)ccc3=O)cc2)c(O)c1N(C)c1ccccc1` [Example 018, 1-(4-((6-butyl-2,4-dihydroxy-5-(methyl(phenyl)amino)pyridin-3-yl)sulfonyl)phenyl)-5-chloropyridin-2(1H)-one], for which the EC50 under setting [2] fell in the range of 0.01 to 10 nM.
Turning to `CCCCc1nc(O)c(C(=O)N2CC[C@@H](c3ccccc3)C2)c(O)c1N1CCCc2ccccc21` [Example 019, (S)-(6-butyl-5-(3,4-dihydroquinolin-1(2H)-yl)-2,4-dihydroxypyridin-3-yl)(3-phenylpyrrolidin-1-yl)methanone], the EC50 under setting [3] was in the range of 10 to 100 nM.
`CCCCc1nc(O)c(S(=O)(=O)c2ccc(-c3ccnc(F)c3C)cc2)c(O)c1N(c1ccccc1)C(C)C` [Example 020]: under setting [2], the EC50 was 0.01 to 10 nM.
Still for that read-out and setting: under `CCCCc1nc(O)c(S(=O)(=O)c2ccc(-c3ccc(F)nc3C)cc2)c(O)c1N1CCCc2ccccc21` [Example 021, 6-butyl-5-(3,4-dihydroquinolin-1(2H)-yl)-3-((4-(6-fluoro-2-methylpyridin-3-yl)phenyl)sulfonyl)pyridine-2,4-diol] stands 0.01 to 10 nM; under `CCCCc1nc(O)c(S(=O)(=O)c2ccc(-c3ccncc3C)cc2)c(O)c1N1CCCc2ccccc21` [Example 022, 6-butyl-5-(3,4-dihydroquinolin-1(2H)-yl)-3-((4-(3-methylpyridin-4-yl)phenyl)sulfonyl)pyridine-2,4-diol], 0.01 to 10 nM.
